From patent US7214672B2, “Preventives/remedies for inflammatory airway diseases” (Nippon Shinyaku Co., Ltd., priority 2000, dated 2007)

Tested on: Rat (male, female)
Test: Single dose toxicity study
Type: in vivo
Conditions: rats, administered only once
Description: Compound 1 or 2 of the present invention was administered to rats only once, and the lethal dose thereof was determined.

SMILES	toxicity (single dose)
C[C@@H]1C[C@H]2[C@@H]3CCC4=CC(=O)C=C[C@]4(C)[C@@]3(F)[C@@H](O)C[C@]2(C)[C@@]1(OC(=O)C1CC1)C(=O)CO [Compound 1, 9-fluoro-11β,17,21-trihydroxy-16α-methyl-1,4-pregnadiene-3,20-dione 17-cyclopropanecarboxylate]	low toxicity
C[C@@H]1C[C@H]2[C@@H]3CCC4=CC(=O)C=C[C@]4(C)[C@@]3(F)[C@@H](O)C[C@]2(C)[C@@]1(OC(=O)C1CC1)C(=O)COC(=O)C1CCCCC1 [Compound 2, 9-fluoro-11β,17,21-trihydroxy-16α-methyl-1,4-pregnadiene-3,20-dione 21-cyclohexanecarboxylate 17-cyclopropanecarboxylate]	low toxicity
